A word on the IC50: it is the midpoint of a concentration-inhibition curve.

This assay deals with human GluN1/GluN2B NMDA receptors (Homo sapiens, UniProt Q05586+Q13224). Put plainly: Cell-based calcium flux (FLIPR) assay on cloned human NR1/NR2B ion channels expressed in mammalian cells. Conditions: standard assay; human GluN1/GluN2B, calcium flux (FLIPR), glutamate ~EC80. The gist of the method:
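Calcium influx followed by FLIPR fluorescence after 5 min compound exposure and a further 5 min co-agonist challenge: 10 μM glycine with glutamate at ~EC80 (standard) or EC40 (HTS).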
(In general: Calcium flux is commonly read through the fluorescence of an indicator in the cells.)

A value given as a limit tells only on which side of the number the result lay.

human GluN1/GluN2B NMDA receptors, sequence (Q13224 27-1484, other chains not shown): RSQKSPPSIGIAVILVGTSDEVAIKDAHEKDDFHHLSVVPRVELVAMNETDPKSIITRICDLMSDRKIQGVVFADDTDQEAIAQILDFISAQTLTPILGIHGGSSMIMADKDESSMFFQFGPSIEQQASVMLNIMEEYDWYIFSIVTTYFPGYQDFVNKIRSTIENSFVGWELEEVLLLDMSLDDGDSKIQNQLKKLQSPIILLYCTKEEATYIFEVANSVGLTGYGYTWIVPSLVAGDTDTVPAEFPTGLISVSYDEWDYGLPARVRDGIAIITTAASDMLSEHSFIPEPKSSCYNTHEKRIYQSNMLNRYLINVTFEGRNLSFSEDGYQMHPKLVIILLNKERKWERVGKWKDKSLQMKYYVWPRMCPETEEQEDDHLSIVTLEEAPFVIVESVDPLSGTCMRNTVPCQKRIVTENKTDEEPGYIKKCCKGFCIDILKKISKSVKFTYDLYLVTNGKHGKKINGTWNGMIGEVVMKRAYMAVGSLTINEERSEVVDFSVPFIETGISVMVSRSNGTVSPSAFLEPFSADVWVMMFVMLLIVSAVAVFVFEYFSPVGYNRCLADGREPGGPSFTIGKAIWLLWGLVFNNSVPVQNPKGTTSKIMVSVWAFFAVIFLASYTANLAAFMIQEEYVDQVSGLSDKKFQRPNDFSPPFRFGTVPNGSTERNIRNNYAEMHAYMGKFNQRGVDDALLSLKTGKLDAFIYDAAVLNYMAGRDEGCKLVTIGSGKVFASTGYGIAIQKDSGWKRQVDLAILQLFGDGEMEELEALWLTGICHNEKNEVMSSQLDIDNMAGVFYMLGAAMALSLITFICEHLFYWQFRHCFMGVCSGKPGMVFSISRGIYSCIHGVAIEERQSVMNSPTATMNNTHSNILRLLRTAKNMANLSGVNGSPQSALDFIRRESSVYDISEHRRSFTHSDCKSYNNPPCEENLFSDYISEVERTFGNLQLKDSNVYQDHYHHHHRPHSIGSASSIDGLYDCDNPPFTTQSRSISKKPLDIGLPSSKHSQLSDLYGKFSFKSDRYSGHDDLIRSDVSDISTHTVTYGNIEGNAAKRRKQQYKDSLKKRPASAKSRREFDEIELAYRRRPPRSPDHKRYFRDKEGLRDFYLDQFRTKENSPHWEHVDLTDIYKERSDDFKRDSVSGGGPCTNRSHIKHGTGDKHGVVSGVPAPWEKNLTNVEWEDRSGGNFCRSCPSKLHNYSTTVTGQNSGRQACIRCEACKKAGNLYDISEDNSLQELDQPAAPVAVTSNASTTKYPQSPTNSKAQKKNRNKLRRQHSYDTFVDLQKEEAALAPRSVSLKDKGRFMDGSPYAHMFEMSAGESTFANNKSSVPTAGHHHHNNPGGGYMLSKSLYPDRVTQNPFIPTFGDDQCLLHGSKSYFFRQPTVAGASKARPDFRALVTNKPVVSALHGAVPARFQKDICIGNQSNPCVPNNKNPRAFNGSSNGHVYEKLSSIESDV

For `Cc1cnc(NCc2cn(-c3ccc(F)c(C(C)(F)F)c3)nn2)nc1` [Example 206, N-[[1-[3-(1,1-Difluoroethyl)-4-fluoro-phenyl]triazol-4-yl]methyl]-5-methyl-pyrimidin-2-amine], the IC50 came to 0.219 µM. For `CCc1cnc(NCc2cn(-c3ccc(F)c(C(C)(F)F)c3)nn2)nc1` [Example 207, N-[[1-[3-(1,1-Difluoroethyl)-4-fluoro-phenyl]triazol-4-yl]methyl]-5-ethyl-pyrimidin-2-amine], the IC50 came to 0.128 µM.

Turning to `CC(C)c1cnc(NCc2cn(-c3ccc(F)c(C(C)(F)F)c3)nn2)nc1` [Example 208, N-[[1-[3-(1,1-Difluoroethyl)-4-fluoro-phenyl]triazol-4-yl]methyl]-5-isopropyl-pyrimidin-2-amine], the IC50 stood at 0.581 µM.

Regarding `CC(F)(F)c1cc(-n2cc(CNc3ncc(C4CC4)cn3)nn2)ccc1F` [Example 209, 5-Cyclopropyl-N-[[1-[3-(1,1-difluoroethyl)-4-fluoro-phenyl]triazol-4-yl]methyl]pyrimidin-2-amine], the IC50 is 0.104 µM. As for `Cc1cnc(NCc2cn(-c3ccc(F)c(C(C)(F)F)c3)nn2)nc1C` [Example 210, N-[[1-[3-(1,1-Difluoroethyl)-4-fluoro-phenyl]triazol-4-yl]methyl]-4,5-dimethyl-pyrimidin-2-amine], the figure is 0.05 µM. For `Cc1cnc(NCc2cn(-c3ccc(F)c(C(F)F)c3)nn2)nc1` [Example 211, N-[[1-[3-(Difluoromethyl)-4-fluoro-phenyl]triazol-4-yl]methyl]-5-methyl-pyrimidin-2-amine], the IC50 was found to be 0.049 µM.

As to `Fc1ccc(-n2cc(CNc3ncc(Cl)cn3)nn2)cc1C(F)F` [Example 212, 5-Chloro-N-[[1-[3-(difluoromethyl)-4-fluoro-phenyl]triazol-4-yl]methyl]pyrimidin-2-amine], the IC50 was 0.074 µM. Consider `Fc1ccc(-n2cc(CNc3ncc(C(F)(F)F)cn3)nn2)cc1C(F)F` [Example 213, N-[[1-[3-(Difluoromethyl)-4-fluoro-phenyl]triazol-4-yl]methyl]-5-(trifluoromethyl)pyrimidin-2-amine], for which the IC50 was 0.108 µM.

As to `CC(C)(O)c1cnc(NCc2cn(-c3ccc(F)c(C(F)F)c3)nn2)nc1` [Example 214, 2-[2-[[1-[3-(Difluoromethyl)-4-fluoro-phenyl]triazol-4-yl]methylamino]pyrimidin-5-yl]propan-2-ol], the IC50 stood at 0.654 µM. Next, `Fc1ccc(-n2cc(CNc3ccccn3)nn2)cc1C(F)F` [Example 215, N-((1-(3-(Difluoromethyl)-4-fluorophenyl)-1H-1,2,3-triazol-4-yl)methyl)pyridin-2-amine]: 0.986 µM. Next, `CCc1cnc(NCc2cn(-c3ccc(F)c(C(F)F)c3)nn2)nc1` [Example 216, N-((1-(3-(Difluoromethyl)-4-fluorophenyl)-1H-1,2,3-triazol-4-yl)methyl)-5-ethylpyrimidin-2-amine]: 0.026 µM. As for `Cc1cnc(NCc2cn(-c3ccc(F)c(C(F)F)c3)nn2)nc1C` [Example 217, N-((1-(3-(Difluoromethyl)-4-fluorophenyl)-1H-1,2,3-triazol-4-yl)methyl)-4,5-dimethylpyrimidin-2-amine], the figure is 0.012 µM; as for `Cc1nc(NCc2cn(-c3ccc(F)c(C(F)F)c3)nn2)ncc1Cl` [Example 218, 5-Chloro-N-((1-(3-(difluoromethyl)-4-fluorophenyl)-1H-1,2,3-triazol-4-yl)methyl)-4-methylpyrimidin-2-amine], 0.011 µM; as for `Cn1nccc1NCc1cn(-c2ccc(F)c(C(F)F)c2)nn1` [Example 219, N-((1-(3-(Difluoromethyl)-4-fluorophenyl)-1H-1,2,3-triazol-4-yl)methyl)-1-methyl-1H-pyrazol-5-amine], above 10 µM. Consider `Cn1ccnc1NCc1cn(-c2ccc(F)c(C(F)F)c2)nn1` [Example 220, N-((1-(3-(Difluoromethyl)-4-fluorophenyl)-1H-1,2,3-triazol-4-yl)methyl)-1-methyl-1H-imidazol-2-amine], for which the concentration for half-maximal inhibition (IC50) turned out to be 3.65 µM.

In the case of `Fc1ccc(-n2cc(CNc3ccccn3)nn2)cc1OC(F)F` [Example 221, N-((1-(3-(Difluoromethoxy)-4-fluorophenyl)-1H-1,2,3-triazol-4-yl)methyl)pyridin-2-amine], the IC50 worked out at 0.724 µM. On to `Cc1cnc(NCc2cn(-c3ccc(F)c(OC(F)F)c3)nn2)nc1` [Example 222, N-((1-(3-(Difluoromethoxy)-4-fluorophenyl)-1H-1,2,3-triazol-4-yl)methyl)-5-methylpyrimidin-2-amine], for which the IC50 worked out at 0.064 µM. Take `Cn1nccc1NCc1cn(-c2ccc(F)c(OC(F)F)c2)nn1` [Example 223, N-((1-(3-(Difluoromethoxy)-4-fluorophenyl)-1H-1,2,3-triazol-4-yl)methyl)-1-methyl-1H-pyrazol-5-amine]: the IC50 stood at 11.8 µM.

In the case of `Cc1cnc(N[C@H](C)c2cn(-c3ccc(Cl)c(OC(F)F)c3)nn2)nc1` [Example 224, N-[(1R)-1-[1-[4-Chloro-3-(difluoromethoxy)phenyl]triazol-4-yl]ethyl]-5-methyl-pyrimidin-2-amine], the IC50 was 0.121 µM. `Clc1ccc(-n2cc(COc3ncc(Cl)cn3)nn2)cc1` [Example 225, 5-Chloro-2-[[1-(4-chlorophenyl)triazol-4-yl]methoxy]pyrimidine]: the IC50 was 0.07 µM. Next, `FC(F)(F)c1cnc(OCc2cn(-c3ccc(Cl)cc3)nn2)nc1` [Example 226, 2-[[1-(4-Chlorophenyl)triazol-4-yl]methoxy]-5-(trifluoromethyl)pyrimidine]: 0.155 µM; `FC(F)Oc1cnc(OCc2cn(-c3ccc(Cl)cc3)nn2)nc1` [Example 227, 2-[[1-(4-Chlorophenyl)triazol-4-yl]methoxy]-5-(difluoromethoxy)pyrimidine]: 0.151 µM; `Fc1cccc(-n2cc(COc3ncccn3)nn2)c1` [Example 228, 2-[[1-(3-Fluorophenyl)triazol-4-yl]methoxy]pyrimidine]: 5.65 µM. As to `Fc1cnc(OCc2cn(-c3cccc(F)c3)nn2)nc1` [Example 229, 5-Fluoro-2-[[1-(3-fluorophenyl)triazol-4-yl]methoxy]pyrimidine], the IC50 came to 2.98 µM.

For the compound `COc1cnc(OCc2cn(-c3cccc(F)c3)nn2)nc1` [Example 230, 2-[[1-(3-Fluorophenyl)triazol-4-yl]methoxy]-5-methoxy-pyrimidine], the IC50 is 0.275 µM. Next, `Fc1cccc(-n2cc(COc3ncc(Cl)cn3)nn2)c1` [Example 231, 5-Chloro-2-[[1-(3-fluorophenyl)triazol-4-yl]methoxy]pyrimidine]: 0.389 µM. Next, `Cc1cnc(OCc2cn(-c3cccc(F)c3)nn2)nc1` [Example 232, 2-[[1-(3-Fluorophenyl)triazol-4-yl]methoxy]-5-methyl-pyrimidine]: 0.205 µM; `CCc1cnc(OCc2cn(-c3cccc(F)c3)nn2)nc1` [Example 233, 5-Ethyl-2-[[1-(3-fluorophenyl)triazol-4-yl]methoxy]pyrimidine]: 0.075 µM. Regarding `Cc1cnc(OCc2cn(-c3cccc(Br)c3)nn2)nc1` [Example 234, 2-[[1-(3-Bromophenyl)triazol-4-yl]methoxy]-5-methyl-pyrimidine], the IC50 worked out at 0.022 µM. Next, `Cc1ccccc1-n1cc(COc2ncccn2)nn1` [Example 236, 2-[[1-(o-Tolyl)triazol-4-yl]methoxy]pyrimidine]: above 10 µM; `Cc1ccccc1-n1cc(COc2ncc(F)cn2)nn1` [Example 237, 5-Fluoro-2-[[1-(o-tolyl)triazol-4-yl]methoxy]pyrimidine]: 16.6 µM; `COc1cnc(OCc2cn(-c3ccccc3C)nn2)nc1` [Example 238, 5-Methoxy-2-[[1-(o-tolyl)triazol-4-yl]methoxy]pyrimidine]: 5.99 µM. For the compound `Cc1ccccc1-n1cc(COc2ncc(Cl)cn2)nn1` [Example 239, 5-Chloro-2-[[1-(o-tolyl)triazol-4-yl]methoxy]pyrimidine], the IC50 is 4.8 µM. Turning to `Cc1cnc(OCc2cn(-c3ccccc3C)nn2)nc1` [Example 240, 5-Methyl-2-[[1-(o-tolyl)triazol-4-yl]methoxy]pyrimidine], the IC50 is 5.58 µM. With `CCc1cnc(OCc2cn(-c3ccccc3C)nn2)nc1` [Example 241, 5-Ethyl-2-[[1-(o-tolyl)triazol-4-yl]methoxy]pyrimidine], the IC50 was 1.46 µM. Consider `Cc1cccc(-n2cc(COc3ncccn3)nn2)c1` [Example 242, 2-[[1-(m-Tolyl)triazol-4-yl]methoxy]pyrimidine], for which the IC50 was 0.647 µM.

In the case of `Cc1cnc(OCc2cn(-c3cccc(C)c3)nn2)nc1` [Example 243, 5-Methyl-2-[[1-(m-tolyl)triazol-4-yl]methoxy]pyrimidine], the IC50 turned out to be 0.014 µM.

With `Cc1cccc(-n2cc(COc3nccc(C)n3)nn2)c1` [Example 244, 4-Methyl-2-[[1-(m-tolyl)triazol-4-yl]methoxy]pyrimidine], the IC50 came to 0.191 µM.

On to `CCc1cnc(OCc2cn(-c3cccc(C)c3)nn2)nc1` [Example 245, 5-Ethyl-2-[[1-(m-tolyl)triazol-4-yl]methoxy]pyrimidine], for which the concentration for half-maximal inhibition (IC50) stood at 0.01 µM. For `Cc1cccc(-n2cc(COc3ncc(Cl)cn3)nn2)c1` [Example 246, 5-Chloro-2-[[1-(m-tolyl)triazol-4-yl]methoxy]pyrimidine], the IC50 was 0.033 µM. Next, `Cc1cccc(-n2cc(COc3ncc(F)cn3)nn2)c1` [Example 247, 5-Fluoro-2-[[1-(m-tolyl)triazol-4-yl]methoxy]pyrimidine]: 0.34 µM; `COc1cnc(OCc2cn(-c3cccc(C)c3)nn2)nc1` [Example 248, 5-Methoxy-2-[[1-(m-tolyl)triazol-4-yl]methoxy]pyrimidine]: 0.009 µM; `Cc1cccc(-n2cc(COc3ncc(C(C)(C)O)cn3)nn2)c1` [Example 249, 2-[2-[[1-(m-Tolyl)triazol-4-yl]methoxy]pyrimidin-5-yl]propan-2-ol]: 0.289 µM.

For the origin of these results see patent US10233173B2, “Substituted 1,2,3-triazoles as NR2B-selective NMDA modulators” (JANSSEN PHARMACEUTICA NV, priority 2016, dated 2019).
